For seven compounds, MIC50, MIC90 and MIC results are on record in ChEMBL document CHEMBL1255286, “In Vitro activity of the new azole isavuconazole (BAL4815) compared with six other antifungal agents against 162 Cryptococcus neoformans isolates from Cuba” (2008).

Values after ≈ are worked out from the molar mass of the structure shown.

Assay [1] relates to Naganishia albida. Description: Antimicrobial activity against Cryptococcus albidus by broth microdilution method. The class given is functional. A general note: In broth dilution the organism is exposed to a series of concentrations in liquid medium.
The subject of assay [2] is Cryptococcus gattii species complex. Description: Antimicrobial activity against Cryptococcus gattii by broth microdilution method. The class given is functional, Cryptococcus bacillisporus.
Assay [3] deals with Cryptococcus neoformans. Description: Antimicrobial activity against Cryptococcus neoformans var. grubii clinical isolate by broth microdilution method. The class given is functional.
Assay [4] relates to Cryptococcus albidosimilis. Description: Antimicrobial activity against Cryptococcus albidosimilis by broth microdilution method. The class given is functional. Particulars: Naganishia albidosimilis.
Assay [5] deals with Cryptococcus neoformans. Description: Antimicrobial activity against Cryptococcus neoformans var. grubii by broth microdilution method. Format: functional.
Assay [6] concerns Cryptococcus neoformans. Description: Antimicrobial activity against Cryptococcus neoformans var. grubii obtained from AIDS patient by broth microdilution method. The class given is functional.
Assay [7] concerns Cryptococcus neoformans. Description: Antimicrobial activity against Cryptococcus neoformans var. grubii obtained from non-AIDS patient by broth microdilution method. Format: functional.

For orientation: MIC50 means the lowest concentration that inhibits either 50% of growth or 50% of the strains tested, depending on the study. Read a low MIC50 as greater potency. The MIC90 is the lowest concentration that inhibits either 90% of growth or 90% of the strains tested, depending on the study. A low value points to greater potency. `C[C@@H]1[C@H](O)[C@@H](C)/C=C/C=C/C=C/C=C/C=C/C=C/C=C/[C@H](O[C@@H]2O[C@H](C)[C@@H](O)[C@H](N)[C@@H]2O)C[C@@H]2O[C@](O)(C[C@@H](O)C[C@@H](O)[C@H](O)CC[C@@H](O)C[C@@H](O)CC(=O)O[C@H]1C)C[C@H](O)[C@H]2C(=O)O` [AMPHOTERICIN B]: the MIC50 in assay [1], in assay [2], in assay [3], in assay [4], in assay [5] and in assay [6] was 0.25 µg/mL (≈ 0.271 µM) in each case. The MIC90 in assay [1] was 0.5 µg/mL (≈ 0.541 µM); in assay [2] it was 0.5 µg/mL (≈ 0.541 µM); in assay [3], 0.25 µg/mL (≈ 0.271 µM); in assay [4] it was 0.5 µg/mL (≈ 0.541 µM); in assay [5] it was 0.5 µg/mL (≈ 0.541 µM); in assay [6], 0.25 µg/mL (≈ 0.271 µM).

As to `OC(Cn1cncn1)(Cn1cncn1)c1ccc(F)cc1F` [FLUCONAZOLE], the MIC50 in assay [1] worked out at 4 µg/mL (≈ 13.1 µM); in assay [2], 4 µg/mL (≈ 13.1 µM); in assay [3], 2 µg/mL (≈ 6.53 µM); in assay [4], 4 µg/mL (≈ 13.1 µM); in assay [5], 4 µg/mL (≈ 13.1 µM); in assay [6] it was 2 µg/mL (≈ 6.53 µM). For the same compound, the MIC90 in assay [1] stood at 8 µg/mL (≈ 26.1 µM); in assay [2], 8 µg/mL (≈ 26.1 µM); in assay [3] it was 4 µg/mL (≈ 13.1 µM); in assay [4] it was 8 µg/mL (≈ 26.1 µM); in assay [5], 8 µg/mL (≈ 26.1 µM); in assay [6] it was 2 µg/mL (≈ 6.53 µM).

Turning to `Nc1nc(=O)[nH]cc1F` [FLUCYTOSINE], the MIC50 came out at 2 µg/mL (≈ 15.5 µM) in assay [7]; 4 µg/mL (≈ 31 µM) in assay [1]; 4 µg/mL (≈ 31 µM) in assay [2]; 4 µg/mL (≈ 31 µM) in assay [3]; 4 µg/mL (≈ 31 µM) in assay [4]; 4 µg/mL (≈ 31 µM) in assay [5]. Besides, in assay [6], the MIC50 turned out to be 4 µg/mL (≈ 31 µM). In addition, the MIC90 stood at 4 µg/mL (≈ 31 µM) in assay [7]; 8 µg/mL (≈ 62 µM) in assay [1]; 8 µg/mL (≈ 62 µM) in assay [2]; 8 µg/mL (≈ 62 µM) in assay [3]; 8 µg/mL (≈ 62 µM) in assay [4]; 8 µg/mL (≈ 62 µM) in assay [5]. In addition, in assay [6], the MIC90 is 8 µg/mL (≈ 62 µM).

`C[C@@H](c1nc(-c2ccc(C#N)cc2)cs1)[C@](O)(Cn1cncn1)c1cc(F)ccc1F` [ISAVUCONAZOLE]: the MIC50 came to 0.008 µg/mL (≈ 0.0183 µM) in assay [7]; 0.004 µg/mL (≈ 0.00914 µM) in assay [1]; 0.004 µg/mL (≈ 0.00914 µM) in assay [2]; 0.004 µg/mL (≈ 0.00914 µM) in assay [3]; 0.004 µg/mL (≈ 0.00914 µM) in assay [4]; 0.004 µg/mL (≈ 0.00914 µM) in assay [5]. Moreover, the MIC50 in assay [6] is 0.008 µg/mL (≈ 0.0183 µM). For the same compound, the MIC90 turned out to be 0.031 µg/mL (≈ 0.0709 µM) in assay [7]; 0.016 µg/mL (≈ 0.0366 µM) in assay [1]; 0.016 µg/mL (≈ 0.0366 µM) in assay [2]; 0.016 µg/mL (≈ 0.0366 µM) in assay [3]; 0.016 µg/mL (≈ 0.0366 µM) in assay [4]; 0.016 µg/mL (≈ 0.0366 µM) in assay [5]. This compound yielded an MIC90 in assay [6] of 0.016 µg/mL (≈ 0.0366 µM).

Take `CCC(C)n1ncn(-c2ccc(N3CCN(c4ccc(OCC5COC(Cn6cncn6)(c6ccc(Cl)cc6Cl)O5)cc4)CC3)cc2)c1=O` (stereo not drawn) [ITRACONAZOLE]: the MIC50 stood at 0.031 µg/mL (≈ 0.0439 µM) in assay [7]; 0.063 µg/mL (≈ 0.0893 µM) in assay [1]; 0.063 µg/mL (≈ 0.0893 µM) in assay [2]; 0.031 µg/mL (≈ 0.0439 µM) in assay [3]; 0.063 µg/mL (≈ 0.0893 µM) in assay [4]; 0.063 µg/mL (≈ 0.0893 µM) in assay [5]. The compound further registered an MIC50 in assay [6] of 0.031 µg/mL (≈ 0.0439 µM). For the same compound, the MIC90 stood at 0.063 µg/mL (≈ 0.0893 µM) in assay [7]; 0.25 µg/mL (≈ 0.354 µM) in assay [1]; 0.25 µg/mL (≈ 0.354 µM) in assay [2]; 0.25 µg/mL (≈ 0.354 µM) in assay [3]; 0.25 µg/mL (≈ 0.354 µM) in assay [4]; 0.25 µg/mL (≈ 0.354 µM) in assay [5]. For the same compound, the MIC90 in assay [6] was determined as 0.125 µg/mL (≈ 0.177 µM).

A word on the MIC: it is the lowest concentration that inhibits growth of the organism. Higher therefore signals a less susceptible organism. In the case of `CC[C@@H]([C@H](C)O)n1ncn(-c2ccc(N3CCN(c4ccc(OC[C@@H]5CO[C@@](Cn6cncn6)(c6ccc(F)cc6F)C5)cc4)CC3)cc2)c1=O` [POSACONAZOLE], the MIC50 in assay [7] is 0.063 µg/mL (≈ 0.0899 µM); in assay [1] it was 0.31 µg/mL (≈ 0.442 µM); in assay [2], 0.31 µg/mL (≈ 0.442 µM); in assay [3], 0.004 µg/mL (≈ 0.00571 µM); in assay [4], 0.31 µg/mL (≈ 0.442 µM); in assay [5] it was 0.31 µg/mL (≈ 0.442 µM). The same compound displayed an MIC50 in assay [6] of 0.031 µg/mL (≈ 0.0442 µM). Further, the MIC90 in assay [7] stood at 0.125 µg/mL (≈ 0.178 µM); in assay [1], 0.63 µg/mL (≈ 0.899 µM); in assay [2], 0.63 µg/mL (≈ 0.899 µM); in assay [3] it was 0.016 µg/mL (≈ 0.0228 µM); in assay [4], 0.63 µg/mL (≈ 0.899 µM); in assay [5], 0.63 µg/mL (≈ 0.899 µM). This compound also showed an MIC90 in assay [6] of 0.125 µg/mL (≈ 0.178 µM). Besides, the MIC in assay [1], in assay [2], in assay [4] and in assay [5] was 0.016 µg/mL (≈ 0.0228 µM) each time.

With `C[C@@H](c1ncncc1F)[C@](O)(Cn1cncn1)c1ccc(F)cc1F` [VORICONAZOLE], the MIC50 in assay [7] was 0.063 µg/mL (≈ 0.18 µM); in assay [1] it was 0.063 µg/mL (≈ 0.18 µM); in assay [2], 0.063 µg/mL (≈ 0.18 µM); in assay [3], 0.031 µg/mL (≈ 0.0887 µM); in assay [4], 0.063 µg/mL (≈ 0.18 µM); in assay [5], 0.063 µg/mL (≈ 0.18 µM). The same compound gave an MIC50 in assay [6] of 0.031 µg/mL (≈ 0.0887 µM). Moreover, the MIC90 in assay [7] came to 0.063 µg/mL (≈ 0.18 µM); in assay [1] it was 0.25 µg/mL (≈ 0.716 µM); in assay [2], 0.25 µg/mL (≈ 0.716 µM); in assay [3] it was 0.125 µg/mL (≈ 0.358 µM); in assay [4], 0.25 µg/mL (≈ 0.716 µM); in assay [5], 0.25 µg/mL (≈ 0.716 µM). Further, in assay [6], the MIC90 came out at 0.125 µg/mL (≈ 0.358 µM).
